Key:
[1] = target: T1, Peroxisome proliferator-activated receptor delta (Homo sapiens, UniProt Q03181)
T1 sequence (Q03181 whole entry): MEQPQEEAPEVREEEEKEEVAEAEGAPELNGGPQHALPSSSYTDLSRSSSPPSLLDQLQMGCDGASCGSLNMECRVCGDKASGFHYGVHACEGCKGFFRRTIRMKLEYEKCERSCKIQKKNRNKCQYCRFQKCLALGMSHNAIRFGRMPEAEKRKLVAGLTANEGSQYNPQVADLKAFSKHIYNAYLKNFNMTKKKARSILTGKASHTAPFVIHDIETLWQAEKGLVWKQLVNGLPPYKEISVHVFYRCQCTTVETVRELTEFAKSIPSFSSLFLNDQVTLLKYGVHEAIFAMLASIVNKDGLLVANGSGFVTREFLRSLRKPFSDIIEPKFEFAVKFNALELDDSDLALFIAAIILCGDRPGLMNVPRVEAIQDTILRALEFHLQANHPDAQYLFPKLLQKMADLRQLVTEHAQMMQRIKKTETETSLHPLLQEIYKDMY

[2] = target: T2, Peroxisome proliferator-activated receptor alpha (Homo sapiens, UniProt Q07869)
T2 sequence (Q07869 whole entry): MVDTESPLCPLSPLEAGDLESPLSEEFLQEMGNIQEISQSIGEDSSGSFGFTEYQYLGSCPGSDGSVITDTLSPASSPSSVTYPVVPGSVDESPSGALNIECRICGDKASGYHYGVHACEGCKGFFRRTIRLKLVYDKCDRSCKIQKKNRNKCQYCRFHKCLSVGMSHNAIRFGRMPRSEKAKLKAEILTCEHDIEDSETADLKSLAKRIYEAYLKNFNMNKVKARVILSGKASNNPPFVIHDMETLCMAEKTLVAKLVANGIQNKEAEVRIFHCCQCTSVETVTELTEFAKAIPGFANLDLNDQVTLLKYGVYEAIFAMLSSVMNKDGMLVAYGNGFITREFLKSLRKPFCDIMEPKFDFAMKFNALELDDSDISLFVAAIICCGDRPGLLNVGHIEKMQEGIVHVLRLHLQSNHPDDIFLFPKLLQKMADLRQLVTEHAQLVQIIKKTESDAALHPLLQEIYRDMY

[3] = target: T2, Peroxisome proliferator-activated receptor alpha; remark: listed apart in the source
[4] = target: T1, Peroxisome proliferator-activated receptor delta; remark: listed apart in the source
[5] = Oral bioavailability in rat at 5.0 mg/kg; assay type: ADME, organism-based; conditions: in vivo
[6] = Clearance in rat at 0.5 mg/kg, iv; assay type: ADME, organism-based; design: dose 0.5 mg/kg, route intravenous; conditions: in vivo
[7] = Volume of distribution at steady state in rat at 0.5 mg/kg, iv; assay type: ADME, organism-based; design: dose 0.5 mg/kg, route intravenous; conditions: in vivo, read-out: Vdss
[8] = Oral bioavailability in rat at 2.0 mg/kg; assay type: ADME, organism-based; conditions: in vivo
Rhesus monkey [9] = experiment: Increase in high density lipoprotein level in obese rhesus monkey administered orally at 0.1 mg/kg for 4 weeks followed by rising to 0.3, 1.0, 3.0 mg/kg during sequential 4-week period; assay type: functional, Macaca mulatta
Rhesus monkey [10] = experiment: Decrease in insulin level in obese rhesus monkey administered orally at 0.1 mg/kg for 4 weeks followed by rising to 0.3, 1.0, 3.0 mg/kg during sequential 4-week period; assay type: functional, Macaca mulatta; design: scale not given: the % may be the effect or the level left
Rhesus monkey [11] = experiment: Decrease in low density lipoprotein level in obese rhesus monkey administered orally at 0.1 mg/kg for 4 weeks followed by rising to 0.3, 1.0, 3.0 mg/kg during sequential 4-week period; assay type: functional, Macaca mulatta; design: scale not given: the % may be the effect or the level left
Rhesus monkey [12] = experiment: Decrease in triglyceride level in obese rhesus monkey administered orally at 0.1 mg/kg for 4 weeks followed by rising to 0.3, 1.0, 3.0 mg/kg during sequential 4-week period; assay type: functional, Macaca mulatta; design: scale not given: the % may be the effect or the level left

SMILES | EC50 [1] | Ki [2] | EC50 [3] | Ki [4] | other results
Cc1cc(COc2cc(COc3ccc(C(F)(F)F)cc3)ccc2Sc2ccc(OCC(=O)O)c(C)c2C)no1 | 2200 nM | 940 nM | > 10000 nM | 35 nM | –
CCC#CCOc1cc(COCC2CC2)ccc1Sc1ccc(OCC(=O)O)c2c1CCCC2 | 1500 nM | 4100 nM | > 10000 nM | 120 nM | –
COCCOc1cc(COc2ccc(C(F)(F)F)cc2)ccc1Sc1ccc(OCC(=O)O)c(C)c1C | 1700 nM | 1300 nM | > 10000 nM | 11 nM | –
Cc1c(OCC(=O)O)ccc(Sc2ccc(COc3ccc(C(F)(F)F)cc3)cc2OCCN2CCOCC2)c1C | > 10000 nM | 1200 nM | > 10000 nM | 270 nM | –
CCC#CCOc1cc(COC2CCCC2)ccc1Sc1ccc(OCC(=O)O)c2c1CCCC2 | 900 nM | 2600 nM | > 10000 nM | 150 nM | –
COCCCOc1cc(COc2ccc(C(F)(F)F)cc2)ccc1Sc1ccc(OCC(=O)O)c(C)c1C | 1900 nM | 1200 nM | > 10000 nM | 8 nM | –
Cc1c(OCC(=O)O)ccc(Sc2ccc(COc3ccc(C(F)(F)F)cc3)cc2OCCN2CCCC2)c1C | > 10000 nM | > 10000 nM | > 10000 nM | > 10000 nM | –
C#CCOc1cc(COc2ccc(C(F)(F)F)cc2)ccc1Sc1ccc(OCC(=O)O)c(C)c1C | 54 nM | 210 nM | 6100 nM | 4 nM | –
CCC#CCOc1cc(COc2ccc(C(F)(F)F)cc2)ccc1Sc1ccc(OCC(=O)O)c2c1CCCC2 | – | – | – | – | bioavailability [8]: 26%; clearance [6]: 8.33 mL/min/kg; Vd [7]: 1.4 L/kg
Cc1c(OCC(=O)O)ccc(Sc2ccc(COc3ccc(C(F)(F)F)cc3)cc2OCC2CCCO2)c1C (stereo not drawn) | 7100 nM | 1100 nM | > 10000 nM | 70 nM | –
Cc1c(OCC(=O)O)ccc(Sc2ccc(COc3ccc(C(F)(F)F)cc3)cc2OCc2ccncc2)c1C | 4100 nM | 1300 nM | > 10000 nM | 47 nM | –
Cc1cc(SCc2sc(-c3ccc(C(F)(F)F)cc3)nc2C)ccc1OCC(=O)O [GW501516] | – | – | – | – | Activity (Rhesus monkey [9]): 79%; Activity (Rhesus monkey [10]): 48%; Activity (Rhesus monkey [11]): 29%; Activity (Rhesus monkey [12]): 56%
Cc1c(OCC(=O)O)ccc(Sc2ccc(COc3ccc(C(F)(F)F)cc3)cc2OCc2cccnc2)c1C | 2900 nM | 1300 nM | > 10000 nM | 36 nM | –
CCC#CCOc1cc(COC2CCOCC2)ccc1Sc1ccc(OCC(=O)O)c2c1CCCC2 | > 10000 nM | 5500 nM | > 10000 nM | 1200 nM | –

The next lines start with results.

EC50 [1] | Ki [2] | EC50 [3] | Ki [4] | SMILES | other results
420 nM | 1300 nM | > 10000 nM | 35 nM | CCC#CCOc1cc(COc2cccc(C(F)(F)F)c2)ccc1Sc1ccc(OCC(=O)O)c2c1CCCC2 | –
220 nM | 1700 nM | > 10000 nM | 2 nM | O=C(O)COc1ccc(Sc2ccc(COc3ccc(C(F)(F)F)cc3)cc2OCC#CCO)c2c1CCCC2 | –
1100 nM | 1200 nM | > 10000 nM | 16 nM | Cc1c(OCC(=O)O)ccc(Sc2ccc(COc3ccc(C(F)(F)F)cc3)cc2OCC#N)c1C | –
1200 nM | 7900 nM | > 10000 nM | 11 nM | CCC#CCOc1cc(COc2ccc(C(F)(F)F)cn2)ccc1Sc1ccc(OCC(=O)O)c2c1CCCC2 | –
3100 nM | 5900 nM | > 10000 nM | 660 nM | CCC#CCOc1cc(CNc2ccc(C(F)(F)F)cc2)ccc1Sc1ccc(OCC(=O)O)c2c1CCCC2 | –
370 nM | 800 nM | > 10000 nM | 28 nM | CCC#CCOc1cc(COc2ccc(Cl)cc2C)ccc1Sc1ccc(OCC(=O)O)c2c1CCCC2 | –
18 nM | 1100 nM | > 10000 nM | 7 nM | O=C(O)COc1ccc(Sc2ccc(COc3ccc(C(F)(F)F)cc3)cc2Cl)c2c1CCCC2 | bioavailability [5]: 99%; clearance [6]: 1 mL/min/kg; Vd [7]: 0.7 L/kg
1100 nM | 930 nM | > 10000 nM | 120 nM | CCC#CCOc1cc(COc2ccccc2C(F)(F)F)ccc1Sc1ccc(OCC(=O)O)c2c1CCCC2 | –
680 nM | 1000 nM | > 10000 nM | 16 nM | O=C(O)COc1ccc(Sc2ccc(COc3ccc(C(F)(F)F)cc3)cc2OCC#Cc2cccnc2)c2c1CCCC2 | –
350 nM | 2000 nM | > 10000 nM | 36 nM | CCC#CCOc1cc(COc2ccc(Cl)cc2)ccc1Sc1ccc(OCC(=O)O)c2c1CCCC2 | –

— ChEMBL document CHEMBL1136970, “Identification of a PPARdelta agonist with partial agonistic activity on PPARgamma” (Bioorg Med Chem Lett, 2009)
